For the test, the target named is T1, PKB-PIF fusion protein (Homo sapiens, UniProt P31751).
T1 construct: made in house
The test can be described thus: Measurement of PKB kinase inhibitory activity (IC50), radiometric filter plate assay. It counts as biochemical. The note with it: 0.6 nM enzyme, 30 μM ATP, 25 μM AKTide-2T substrate, 20 minutes. As to the method:
The reaction is allowed to proceed for 20 minutes before addition of excess orthophosphoric acid to quench activity. The reaction mixture is transferred to a phosphocellulose filter plate where the peptide binds and the unused ATP is washed away. After washing, scintillant is added and the incorporated activity measured by scintillation counting.

As a reminder, the IC50 is the concentration at which inhibition is half-maximal. A higher IC50 goes with weaker potency.

T1 sequence (P31751 with tags, fused parts or gaps limits assumed): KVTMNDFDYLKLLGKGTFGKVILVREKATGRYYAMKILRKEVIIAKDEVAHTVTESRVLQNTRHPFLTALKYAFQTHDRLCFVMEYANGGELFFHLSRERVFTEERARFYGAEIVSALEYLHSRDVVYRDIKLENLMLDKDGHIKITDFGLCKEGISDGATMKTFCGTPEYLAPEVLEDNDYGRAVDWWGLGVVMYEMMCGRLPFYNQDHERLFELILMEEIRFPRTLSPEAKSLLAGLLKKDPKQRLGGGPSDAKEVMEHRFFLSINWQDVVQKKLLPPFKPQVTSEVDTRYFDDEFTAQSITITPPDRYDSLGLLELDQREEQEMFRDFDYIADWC

`CNC[C@@H](c1ccc(Cl)cc1)c1ccc(-c2cn[nH]c2)cc1` [Example 22, {2-(4-Chloro-phenyl)-2-[4-(1H-pyrazol-4-yl)-phenyl]-ethyl}-methyl-amine (R)] showed an IC50 below 1000 nM.
As for `CNCC(c1ccccc1)c1ccc(-c2c[nH]nc2C)nc1` (centres unmarked) [Example 60], the 50% inhibitory concentration (IC50) is below 5000 nM.

Source of the values: patent US9283226B2, “Pyrazole derivatives as protein kinase modulators” (Astex Therapeutics Ltd, priority 2003, dated 2016).
